# Results as given in paper PMC9025560, “A Comparison of Evans Blue and 4-(p-Iodophenyl)butyryl Albumin Binding Moieties on an Integrin αvβ6 Binding Peptide” (Pharmaceutics, 2022).
# Where two headings read alike, the source gives them in different places.
# How the values were obtained:
# mouse serum protein = test: Mouse serum protein binding by ultrafiltration; assay type: in vitro ADME; settings: 37 °C
# Procedure: Serum protein binding of [^64Cu]1 and [^64Cu]2 was assessed following the previously reported method. Peptides [^64Cu]1 and [^64Cu]2 were evaluated by ultrafiltration using Centrifree Ultrafiltration devices (EMD) according to the manufacturer’s recommendations. Experiments were carried out in triplicate. The Centrifree Ultrafiltration devices were pretreated with PBS containing Tween 20 (5% v/v), followed by triplicate rinses with PBS. An aliquot of each peptide [^64Cu]1 or [^64Cu]2 in PBS (≤25 μL, 20–60 KBq) was thoroughly mixed with 0.5 mL of serum at 37 °C in a microfuge tube. The mixture was incubated at 37 °C for 5 min, and an aliquot (50 μL) was transferred to a tube for γ-counting. The remaining sample was transferred to a Centrifree Ultrafiltration device and centrifuged for 40 min at 1500 (RCF) at ambient temperature (20–24 °C). An aliquot (50 μL) of the filtrate was transferred to a tube for γ-counting. […] Following γ-counting, the protein-bound radioactivity was calculated by subtracting the counts measured in the filtrate aliquot (i.e., not protein-bound) from the counts in the corresponding serum aliquot. The data are expressed as mean ± standard deviation of fraction of radioactivity bound to protein after subtraction of non-specific binding determined in the blank.
# [1] = Biodistribution in mice bearing BxPC-3 xenograft tumors; assay type: in vivo; settings: female, athymic nu/nu-nude, mouse, in vivo, total radioactivity; for tissue uptake at 4 h: 4 h p.i.; for tissue uptake at 24 h: 24 h p.i.; for tissue uptake at 48 h: 48 h p.i.
# Procedure: All animal procedures conformed to the Animal Welfare Act and were approved by the University of California, Davis Institutional Animal Care and Use Committee. Female athymic nu/nu-nude mice (6–8 weeks old) were purchased from Charles River Laboratories (Wilmington, MA, USA) and provided food and water on an ad libitum basis. BxPC-3 xenografts were implanted according to previous methods. Briefly, BxPC-3 cells were evaluated by flow cytometry to confirm integrin αvβ6 expression levels, injected subcutaneously into the left flank [5 million in 100 μL of a 1:1 mixture of serum-free RPMI and GFR Matrigel (Corning, New York, NY, USA)], and allowed to grow for approximately 3 weeks until tumors reached a diameter of 0.5–1 cm.
# For biodistribution studies the [^64Cu]1–4 (3.7–5.55 MBq) in PBS (100 μL, pH 7.2) was injected intravenously (i.v.) via catheter into the tail vein. Following a conscious uptake period, the mice were anesthetized (5% isoflurane), euthanized, and dissected ([^64Cu]1 and [^64Cu]2, n = 3/radiolabeled peptide/time point; 4, 24, and 48 h p.i.; the 72 h time point was obtained from the imaging animals after the 72 h PET/CT scans; compounds [^64Cu]3 and [^64Cu]4, n = 2/radiolabeled compound at 4 h p.i.). Tissues were rapidly collected, weighed, and radioactivity measured with a γ-counter. Decay-corrected radioactivity concentrations are expressed as the percentage of injected dose per gram of tissue (% ID/g). Data are reported as mean ± standard deviation (SD) (Figure S20, S21 and S25).
# human serum protein = test: Human serum protein binding by ultrafiltration; assay type: in vitro ADME
# Procedure: Serum protein binding of [^64Cu]1 and [^64Cu]2 was assessed following the previously reported method. Peptides [^64Cu]1 and [^64Cu]2 were evaluated by ultrafiltration using Centrifree Ultrafiltration devices (EMD) according to the manufacturer’s recommendations. Experiments were carried out in triplicate. The Centrifree Ultrafiltration devices were pretreated with PBS containing Tween 20 (5% v/v), followed by triplicate rinses with PBS. An aliquot of each peptide [^64Cu]1 or [^64Cu]2 in PBS (≤25 μL, 20–60 KBq) was thoroughly mixed with 0.5 mL of serum at 37 °C in a microfuge tube. The mixture was incubated at 37 °C for 5 min, and an aliquot (50 μL) was transferred to a tube for γ-counting. The remaining sample was transferred to a Centrifree Ultrafiltration device and centrifuged for 40 min at 1500 (RCF) at ambient temperature (20–24 °C). An aliquot (50 μL) of the filtrate was transferred to a tube for γ-counting. For each radiolabeled peptide, a blank was run using 0.5 mL PBS/Tween 20 (5% v/v) instead of serum (n = 3) to determine non-specific binding. Following γ-counting, the protein-bound radioactivity was calculated by subtracting the counts measured in the filtrate aliquot (i.e., not protein-bound) from the counts in the corresponding serum aliquot. The data are expressed as mean ± standard deviation of fraction of radioactivity bound to protein after subtraction of non-specific binding determined in the blank.
# [2] = iv, i.v., read-out: Blood uptake
# [3] = iv, i.v., read-out: Bone uptake
# [4] = iv, i.v., read-out: Brain uptake
# [5] = iv, i.v., read-out: BxPC-3 Tumor uptake
# [6] = iv, i.v., read-out: Fecal Matter radioactivity
# [7] = iv, i.v., read-out: Gall Bladder uptake
# [8] = iv, i.v., read-out: Heart uptake
# [9] = iv, i.v., read-out: Kidneys uptake
# [10] = iv, i.v., read-out: Lg. Intestines uptake
# [11] = iv, i.v., read-out: Liver uptake
# [12] = iv, i.v., read-out: Lung uptake
# [13] = iv, i.v., read-out: Muscle uptake
# [14] = iv, i.v., read-out: Pancreas uptake
# [15] = iv, i.v., read-out: Skin uptake
# [16] = iv, i.v., read-out: Sm. Intestines uptake
# [17] = iv, i.v., read-out: Spleen uptake
# [18] = iv, i.v., read-out: Stomach uptake
# [19] = iv, i.v., read-out: Urine radioactivity
compound,measurement,setting,value
"CC(C)C[C@H](NC(=O)[C@H](CC(=O)O)NC(=O)CNC(=O)[C@H](CCCNC(=N)N)NC(=O)[C@H](CC(C)C)NC(=O)[C@H](CC(N)=O)NC(=O)[C@@H]1CCCN1C(=O)[C@@H](NC(=O)[C@H](C)NC(=O)[C@H](CC(N)=O)NC(=O)CCOCCOCCOCCOCCOCCOCCOCCOCCOCCOCCOCCOCCOCCOCCOCCOCCOCCOCCOCCOCCOCCOCCOCCOCCOCCOCCOCCOCCNC(=O)[C@H](CCCCNC(=O)[C@H](CC(=O)O)NC(=O)CCCNC(=O)CCCc1ccc(I)cc1)NC(=O)CN1CCN(CC(=O)O)CCN(CC(=O)O)CCN(CC(=O)O)CC1)C(C)C)C(=O)N[C@@H](CCC(N)=O)C(=O)N[C@H](C(=O)N[C@@H](CC(C)C)C(=O)N[C@@H](C)C(=O)N[C@@H](CCC(N)=O)C(=O)N[C@@H](CCCNC(=N)N)C(=O)N[C@H](C(=O)N[C@@H](C)C(=O)N[C@@H](CCCNC(=N)N)C(=O)N[C@H](C(=O)NCCOCCOCCOCCOCCOCCOCCOCCOCCOCCOCCOCCOCCOCCOCCOCCOCCOCCOCCOCCOCCOCCOCCOCCOCCOCCOCCOCCOCCC(N)=O)[C@@H](C)O)C(C)C)C(C)C [[^64Cu]2, [^64Cu]Cu DOTA-IP-αvβ6-BP, metal not drawn]",Binding to mouse serum protein,mouse serum protein,44.0 ± 0.1%
same,tissue uptake at 4 h,[1]; [2],1.21 ± 0.16 %ID/g
same,tissue uptake at 4 h,[1]; [3],0.59 ± 0.15 %ID/g
same,tissue uptake at 4 h,[1]; [4],0.12 ± 0.002 %ID/g
same,tissue uptake at 4 h,[1]; [5],7.6 ± 0.43 %ID/g
same,tissue uptake at 4 h,[1]; [6],9.32 ± 1.08 %ID/g
same,tissue uptake at 4 h,[1]; [7],4.33 ± 2.64 %ID/g
same,tissue uptake at 4 h,[1]; [8],2.22 ± 0.11 %ID/g
same,tissue uptake at 4 h,[1]; [9],33.6 ± 5.39 %ID/g
same,tissue uptake at 4 h,[1]; [10],9.83 ± 0.69 %ID/g
same,tissue uptake at 4 h,[1]; [11],1.58 ± 0.26 %ID/g
same,tissue uptake at 4 h,[1]; [12],2.25 ± 0.39 %ID/g
same,tissue uptake at 4 h,[1]; [13],0.99 ± 0.3 %ID/g
same,tissue uptake at 4 h,[1]; [14],1.04 ± 0.09 %ID/g
same,tissue uptake at 4 h,[1]; [15],2.72 ± 0.31 %ID/g
same,tissue uptake at 4 h,[1]; [16],9.55 ± 1.21 %ID/g
same,tissue uptake at 4 h,[1]; [17],0.41 ± 0.13 %ID/g
same,tissue uptake at 4 h,[1]; [18],18.1 ± 2.91 %ID/g
same,tissue uptake at 4 h,[1]; [19],25.1 ± 6.79 %ID/g
same,tissue uptake at 24 h,[1]; [2],0.2 ± 0.04 %ID/g
same,tissue uptake at 24 h,[1]; [3],0.28 ± 0.21 %ID/g
same,tissue uptake at 24 h,[1]; [4],0.08 ± 0.01 %ID/g
same,tissue uptake at 24 h,[1]; [5],4.41 ± 1.25 %ID/g
same,tissue uptake at 24 h,[1]; [6],4.58 ± 1.03 %ID/g
same,tissue uptake at 24 h,[1]; [7],5.05 ± 3.56 %ID/g
same,tissue uptake at 24 h,[1]; [8],1.61 ± 0.06 %ID/g
same,tissue uptake at 24 h,[1]; [9],21.9 ± 1.74 %ID/g
same,tissue uptake at 24 h,[1]; [10],5.58 ± 0.94 %ID/g
same,tissue uptake at 24 h,[1]; [11],1.62 ± 0.2 %ID/g
same,tissue uptake at 24 h,[1]; [12],1.69 ± 0.07 %ID/g
same,tissue uptake at 24 h,[1]; [13],0.78 ± 0.22 %ID/g
same,tissue uptake at 24 h,[1]; [14],0.78 ± 0.01 %ID/g
same,tissue uptake at 24 h,[1]; [15],1.48 ± 0.03 %ID/g
same,tissue uptake at 24 h,[1]; [16],4.58 ± 0.62 %ID/g
same,tissue uptake at 24 h,[1]; [17],0.31 ± 0.05 %ID/g
same,tissue uptake at 24 h,[1]; [18],11.1 ± 1.16 %ID/g
same,tissue uptake at 24 h,[1]; [19],1.7 ± 1.91 %ID/g
same,tissue uptake at 48 h,[1]; [2],0.2 ± 0.04 %ID/g
same,tissue uptake at 48 h,[1]; [3],0.24 ± 0.09 %ID/g
same,tissue uptake at 48 h,[1]; [4],0.09 ± 0.01 %ID/g
same,tissue uptake at 48 h,[1]; [5],4.09 ± 1.28 %ID/g
same,tissue uptake at 48 h,[1]; [6],2.67 ± 0.58 %ID/g
same,tissue uptake at 48 h,[1]; [7],2.83 ± 0.86 %ID/g
same,tissue uptake at 48 h,[1]; [8],1.43 ± 0.2 %ID/g
same,tissue uptake at 48 h,[1]; [9],11.8 ± 1.02 %ID/g
same,tissue uptake at 48 h,[1]; [10],3.95 ± 0.81 %ID/g
same,tissue uptake at 48 h,[1]; [11],1.71 ± 0.21 %ID/g
same,tissue uptake at 48 h,[1]; [12],1.33 ± 0.15 %ID/g
same,tissue uptake at 48 h,[1]; [13],0.63 ± 0.07 %ID/g
same,tissue uptake at 48 h,[1]; [14],0.64 ± 0.08 %ID/g
same,tissue uptake at 48 h,[1]; [15],1.22 ± 0.22 %ID/g
same,tissue uptake at 48 h,[1]; [16],2.28 ± 0.1 %ID/g
same,tissue uptake at 48 h,[1]; [17],0.35 ± 0.05 %ID/g
same,tissue uptake at 48 h,[1]; [18],6.4 ± 1.02 %ID/g
same,tissue uptake at 48 h,[1]; [19],3.24 ± 1.03 %ID/g
same,tissue uptake at 72 h,"[1]; iv, 72 h p.i., i.v., read-out: Blood uptake",0.17 ± 0.001 %ID/g
same,tissue uptake at 72 h,"[1]; iv, 72 h p.i., i.v., read-out: Bone uptake",0.26 ± 0.01 %ID/g
same,tissue uptake at 72 h,"[1]; iv, 72 h p.i., i.v., read-out: Brain uptake",0.1 ± 0.02 %ID/g
same,tissue uptake at 72 h,"[1]; iv, 72 h p.i., i.v., read-out: BxPC-3 Tumor uptake",4.91 ± 1.19 %ID/g
same,tissue uptake at 72 h,"[1]; iv, 72 h p.i., i.v., read-out: Fecal Matter radioactivity",2.29 ± 0.53 %ID/g
same,tissue uptake at 72 h,"[1]; iv, 72 h p.i., i.v., read-out: Gall Bladder uptake",3.21 ± 1.02 %ID/g
same,tissue uptake at 72 h,"[1]; iv, 72 h p.i., i.v., read-out: Heart uptake",1.05 ± 0.05 %ID/g
same,tissue uptake at 72 h,"[1]; iv, 72 h p.i., i.v., read-out: Kidneys uptake",11.5 ± 1.02 %ID/g
same,tissue uptake at 72 h,"[1]; iv, 72 h p.i., i.v., read-out: Lg. Intestines uptake",3 ± 0.37 %ID/g
same,tissue uptake at 72 h,"[1]; iv, 72 h p.i., i.v., read-out: Liver uptake",1.3 ± 0.13 %ID/g
same,tissue uptake at 72 h,"[1]; iv, 72 h p.i., i.v., read-out: Lung uptake",1.16 ± 0.22 %ID/g
same,tissue uptake at 72 h,"[1]; iv, 72 h p.i., i.v., read-out: Muscle uptake",0.76 ± 0.24 %ID/g
same,tissue uptake at 72 h,"[1]; iv, 72 h p.i., i.v., read-out: Pancreas uptake",0.57 ± 0.06 %ID/g
same,tissue uptake at 72 h,"[1]; iv, 72 h p.i., i.v., read-out: Skin uptake",0.92 ± 0.14 %ID/g
same,tissue uptake at 72 h,"[1]; iv, 72 h p.i., i.v., read-out: Sm. Intestines uptake",1.24 ± 0.11 %ID/g
same,tissue uptake at 72 h,"[1]; iv, 72 h p.i., i.v., read-out: Spleen uptake",0.38 ± 0.14 %ID/g
same,tissue uptake at 72 h,"[1]; iv, 72 h p.i., i.v., read-out: Stomach uptake",3.14 ± 0.62 %ID/g
same,tissue uptake at 72 h,"[1]; iv, 72 h p.i., i.v., read-out: Urine radioactivity",1.46 ± 1.17 %ID/g
same,tissue uptake at 72 h,"[1]; 72 h, read-out: GI uptake",< 3.2 %ID/g
same,tissue uptake,"[1]; throughout 4–72 h, read-out: Liver uptake throughout",< 3 %ID/g
same,Binding to human serum protein,"human serum protein; 37 °C, ultrafiltration",63.3 ± 1.5%
same,Serum albumin binding,"human serum protein; abstract, serum species not stated",42–44%
